Values after ≈ are worked out from the molar mass of the structure shown.
What was measured:
[1] = system: Lu1; test: Cytotoxicity against human Lu1 cells; assay type: functional; conditions: read-out: ED50 (the source's name)
[2] = system: LNCaP; test: Cytotoxicity against human LNCAP cells; assay type: functional; conditions: read-out: ED50 (the source's name)
[3] = system: MCF7; test: Cytotoxicity against human MCF7 cells; assay type: functional; conditions: read-out: ED50 (the source's name)
[4] = Cytotoxicity against human HUVEC; assay type: cell-based; conditions: HUVEC cells, read-out: ED50 (the source's name)

Row | SMILES | EC50 [1] [µg/mL] | EC50 [2] [µg/mL] | EC50 [3] [µg/mL] | CC50 [4] [µg/mL]
1 | CC(=O)OC[C@H]1O[C@@H](O[C@@H]2[C@@H](O)[C@H](O[C@H]3CC[C@]4(C)[C@H]5CC=C6[C@@H]7CC(C)(C)CC[C@]7(CO)CC[C@@]6(C)[C@]5(C)CC[C@H]4C3(C)C)OC[C@H]2O)[C@H](O)[C@@H](O)[C@@H]1O | > 20 | > 20 | > 20 | > 20
2 | CC1(C)CC[C@]2(CO)CC[C@]3(C)C(=CC[C@@H]4[C@@]5(C)CC[C@H](O[C@@H]6O[C@H](CO)[C@@H](O)[C@H](O[C@@H]7OC[C@H](O)[C@H](O)[C@H]7O)[C@H]6O[C@@H]6O[C@H](CO)[C@@H](O)[C@H](O)[C@H]6O)C(C)(C)[C@@H]5CC[C@]43C)[C@@H]2C1 [NEPHELIOSIDE II] | > 20 | > 20 | > 20 | > 20
3 | CO[C@@H]1C[C@H]2C(C)(C)[C@@H](O[C@@H]3O[C@H](CO)[C@@H](O)[C@H](O[C@@H]4OC[C@H](O)[C@H](O)[C@H]4O)[C@H]3O[C@@H]3O[C@H](CO)[C@@H](O)[C@H](O)[C@H]3O)CC[C@]2(C)[C@H]2CC=C3[C@@H]4CC(C)(C)CC[C@]4(CO)CC[C@@]3(C)[C@@]21C [NEPHELIOSIDE IV] | > 20 | > 20 | > 20 | > 20
4 | CC1(C)CC[C@]2(CO)CC[C@]3(C)C(=CC[C@@H]4[C@@]5(C)CC[C@H](O[C@@H]6OC[C@@H](O)[C@H](O[C@@H]7OC[C@H](O)[C@H](O)[C@H]7O)[C@H]6O[C@@H]6O[C@H](CO)[C@@H](O)[C@H](O)[C@H]6O)C(C)(C)[C@@H]5CC[C@]43C)[C@@H]2C1 [NEPHELIOSIDE I] | 19.5 (≈ 22.4 µM) | > 20 | > 20 | > 20
5 | CC1(C)CC[C@]2(C)[C@@H](O)C[C@]3(C)C(=CC[C@@H]4[C@@]5(C)CC[C@H](O[C@@H]6O[C@H](CO)[C@@H](O)[C@H](O[C@@H]7OC[C@H](O)[C@H](O)[C@H]7O)[C@H]6O[C@@H]6O[C@H](CO)[C@@H](O)[C@H](O)[C@H]6O)C(C)(C)[C@@H]5CC[C@]43C)[C@@H]2C1 [NEPHELIOSIDE VI] | > 20 | > 20 | > 20 | > 20
6 | CC1(C)CC[C@]2(C)[C@@H](O)C[C@]3(C)C(=CC[C@@H]4[C@@]5(C)CC[C@H](O[C@@H]6OC[C@@H](O)[C@H](O[C@@H]7OC[C@H](O)[C@H](O)[C@H]7O)[C@H]6O[C@@H]6O[C@H](CO)[C@@H](O)[C@H](O)[C@H]6O)C(C)(C)[C@@H]5CC[C@]43C)[C@@H]2C1 [NEPHELIOSIDE V] | 13.6 (≈ 15.6 µM) | 11.7 (≈ 13.5 µM) | 13.9 (≈ 16 µM) | 17.7 (≈ 20.4 µM)

From ChEMBL document CHEMBL1146478, “Saponins from the bark of Nephelium maingayi” (J Nat Prod, 2004)
